In patent US12502393B2, “Dual mode of action soluble guanylate cyclase activators and phosphodiesterase inhibitors and uses thereof” (TOPADUR PHARMA AG, priority 2018, dated 2025):
pIC50: −log10 of the molar value.

Legend:
[1] = test system: Human Pulmonary Artery Smooth Muscle Cells (hPASMC); assay: cGMP in human pulmonary artery smooth muscle cells (hPASMC); type: cell-based; settings: 30 min incubation, FIG. 4
Method: Human Pulmonary Artery Smooth Muscle Cells (hPASMC) were purchased from Clonetics™ Lonza (Lonza, reference number CC-2581) and cultured in Clonetics™ smooth muscle growth medium (Clonetics™ SmGM™-2 with BulletKit™ growth factor supplements (Lonza, reference number CC-3182) at 37° C. in 5% CO2. Culture medium was replaced each 48 hours. Cells were grown in 75 cm^2 culture plates.
48 h before the experiments, cells were trypsinized (Trypsin kit One ReagentPack™ (CC-5034), Lonza) and plated in 96 well plates precoated with collagen I at 10000 cells per well. 24 h before the experiments culture medium was replaced by serum-reduced (0.5% FBS) medium.
Measurements of intracellular cGMP were performed using the Amersham cGMP EIA System (GE Healthcare, RPN226) following the instructions of the manufacturer. The assay has a sensitivity of 2 fmol cGMP per well. Briefly, incubations were terminated by adding Amersham's lysis buffer 1 and cells left for 10 min under agitation to ensure complete lysis. cGMP in samples was then acetylated using triethylamine and acetic anhydride and determined by a competitive ELISA. The ELISA is based on the competition between acetylated cGMP in cell culture lysates and a peroxidase-labelled cGMP conjugate for limited binding sites on a cGMP specific antiserum immobilized on pre-coated 96 well MTP. cGMP was determined based on a standard curve. […]

[2] = test system: Rat aortic smooth muscle cells; assay: Cellular cGMP assay in rat aortic smooth muscle cells; type: cell-based; settings: 10 μM Riociguat
Method: Examples (Test compounds) were characterized for their potency and efficacy to elevate cGMP in cellular systems such as human trabecular meshwork cells (Table 3), human platelets (Table 5) and rat aortic smooth muscle cells (Table 4).
Human trabecular meshwork cells (ABC Biopply AG, Solothurn, Switzerland) or rat aortic smooth muscle cells (Sigma Aldrich AG, Buchs, Switzerland) were plated in a 96 well plate precoated with collagen (Collagen Type I solution from rat tail, Sigma; diluted to 0.1 mg/ml) at 20.000 cells per well and grown in corresponding Trabecular Meshwork (ABC Supply AG) or Smooth Muscle (Sigma AG) Growth medium as provided by the manufacturers. After 18 h medium was exchanged and new medium added supplemented with 5 mM GSH. The next day culture medium was exchanged to DMEM with low glucose supplemented with 5 mM GSH. Cells were pre-incubated with 10 μM Riociguat (soluble guanylate cyclase stimulator; Lucerna-Chem AG, Luzern, Switzerland) for 15 min before test or reference compounds or vehicle was added to a final incubation volume of 100 μl per well. At the end of the incubation time (see below) the reaction was terminated by adding HCl (0.16M), IBMX (Isobutylmethylxanthin) (2 mM) in DMSO (2%) to the culture medium, final concentrations per well are given in brackets. Following a 20 sec on a plate shaker (200 rpm) the plate was immediately frozen at −80° C.
(§1) cGMP was determined by a commercially available ELISA kit (Direct cGMP ELISA kit, Enzo Life Sciences AG, Lauren, Switzerland) with a lower detection limit of 0.08 pmol/ml using the acetylation protocol following manufacturer's instructions. Results are given as the means from at least two independent experiments each in triplicate.
(§2) To study concentration-dependent effects on total cGMP test and reference compounds were investigated from 0.1 nM to 1 μM in half-logarithmic steps with an incubation time of 2 h. To examine the time course the incubation times were (min) 10, 30, 60, 90, 120 at 1 μM of test or reference compound.
(§3) Compounds were diluted from stock solutions in DMSO. The final concentration of DMSO in all wells including the vehicle controls was 0.2% for human trabecular meshwork and rat aortic smooth muscle cells and 0.3% for platelets.
(§4) From time course experiments, the time to half of the maximum cGMP increase with 1 μM of test compound has been extrapolated (t0.5max).

[3] = test system: Human Trabecular Meshwork Cells; assay: Cellular cGMP assay in human trabecular meshwork cells; type: cell-based; settings: 10 μM Riociguat
[4] = Human plasma protein binding; type: in vitro ADME
Human Platelets = assay: Total cGMP in human platelets; type: cell-based
Method: Effects of test and reference compounds on total cGMP in human platelets were investigated as described by Dunkern and Hatzelmann (Cell Signal. 17: 331-9, 2005) with modifications. Briefly, buffy coats (acquired form SRK Blutspende Zurich) were 4-fold diluted in 150 mM sodium chloride solution containing 0.9% sodium citrate and centrifuged at 200 g for 10 min. The resulting platelet-rich plasma was supplemented with a 1/10 volume of ACD solution (85 mM sodium citrate, 111 mM D-glucose, 71 mM citric acid, pH 4.4) and apyrase (Sigma AG) to a final concentration of 2 U/ml. After another centrifugation (1400 g, 10 min) the cellular pellet was resuspended in Ca2+/Mg2+-free Hepes-Tyrode buffer (134 mM NaCl, 12 mM NaHCO3, 2.9 mM KCl, 0.36 mM NaH2PO4, 5 mM HEPES, 5 mM glucose, 0.5% (w/v) bovine serum albumin, pH 7.4) and platelets were counted.
Platelets were used at 9×10^7 cells in 100 μl per well and after adding test and reference compounds the incubation volume was 200 μl per well in Hepes-Tyrode. Experiments in platelets were done in presence of 1 μM riociguat and 100 nM BAY 190954 (PDE2 inhibitor) (Lucerna Chem AG) and test/reference compounds were added after a preincubation time of 15 min. At the end of the incubation time (see below) the reaction was terminated by adding 20 μl of 2N HCl per well. Following a 20 sec on a plate shaker (300 rpm) the plate was left for 15 min and then centrifuged at 1000×g for 5 min. Supernatants were stored at −80° C.
as §1, §2, §3, §4

[5] = target: T1, recombinant human (rh) PDE5A (Homo sapiens, UniProt O76074); assay: Phosphodiesterase-5 activity assay (radiometric SPA); type: biochemical; settings: rhPDE5A1, 0.5 μM cGMP, 20 min at 37° C.
T1 construct: GST; purchased SIGMA E9034

CCCc1nc(C)c2c(=O)[nH]c(-c3cc(S(=O)(=O)N4CCC([C@H](CO[N+](=O)[O-])O[N+](=O)[O-])CC4)ccc3OCC)nn12 [Compound 2a, (R)-1-(1-((4-ethoxy-3-(5-methyl-4-oxo-7-propyl-3,4-dihydroimidazo[5,1-f][1,2,4]triazin-2-yl)phenyl)sulfonyl)piperidin-4-yl)ethane-1,2-diyl dinitrate]
efficacy in increasing cGMP level as compared to the reference inhibitor vardenafil [1]: significantly higher efficacy | Concentration (nM) for 3-fold cGMP increase vs Baseline [2]: 293 nM | Ratio Maximum cGMP increase vs Baseline ([2]; 5 mM GSH, incubation 2 h): 10.58 | Concentration (nM) for 3-fold or 2-fold* cGMP increase vs Baseline ([3]; 3-fold increase (values without asterisk), HTMC): 4.2 nM | Ratio Maximum cGMP increase vs Baseline ([3]; HTMC, 5 mM GSH, incubation 2 h): 101.7 | effect to elevate cGMP in HTMC compared with organic nitrate ester ITN and PDE5 inhibitors sildenafil or vardenafil ([3]; HTMC, FIG. 3A and FIG. 3B): over-additive effects | concentration equipotent to ITN & Vardenafil to elevate cGMP in HTMC ([3]; equipotent to 1 μM ITN & 1 μM Vardenafil): 2.6 nM | concentration equipotent to ITN & Vardenafil to elevate cGMP in HTMC ([3]; equipotent to 10 μM ITN & 1 μM Vardenafil): 12.4 nM | concentration equipotent to ITN & Sildenafil to elevate cGMP in HTMC ([3]; first value of pair 10.6 nM/50.8 nM, printed against 10 μM ITN & 1 μM Sildenafil): 10.6 nM | concentration equipotent to ITN & Sildenafil to elevate cGMP in HTMC ([3]; second value of pair 10.6 nM/50.8 nM, equipotent to 10 μM ITN & 1 μM Sildenafil): 50.8 nM | % Bound in human plasma [4]: 99.80% | fraction unbound ([4]; human, read-out: % Unbound in human plasma): 0.002 | Ratio Maximum cGMP increase vs Baseline (Human Platelets; 1 μM riociguat and 100 nM BAY 190954, incubation 2 h): 152.5 | Concentration (nM) for 3-fold cGMP or 2-fold* increase vs Baseline (Human Platelets; 3-fold increase (values without asterisk), 1 μM riociguat, 100 nM BAY 190954): 3.3 nM | pIC50 [5]: 9.38
